Reference: US20070123546A1, “2-amino-7,8-dihydro-6H-pyrido[4,3-d]pyrimidin-5-ones” (Chiron Corporation, priority 2005, published 2007)

Biological target: His-tagged N-terminal ATP binding domain (amino acid residues 9-236) of HSP90α (Homo sapiens, UniProt P07900)
Assay: HSP90 inhibitor binding potency: TRF competition binding assay
Settings: Table 3; competition with biotinylated radicicol
In short: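 Competition against biotinylated radicicol for binding to the His-tagged 9-236 ATP domain of HSP90α: 2 h, room temperature, HEPES/MgCl2/KCl/BSA buffer. Streptavidin capture, then europium-labeled anti-His antibody and enhancement solution; europium counts give IC50.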

IC50 [µM] | Compound
> 10 | Cc1nc(N)nc2c1C(=O)N(Cc1ccccc1)[C@@H](c1ccc(F)cc1-c1ncc(Cl)c(O)n1)C2 [Compound 112, (R)-2-Amino-6-benzyl-7-[2-(5-chloro-4-hydroxy-pyrimidin-2-yl)-4-fluoro-phenyl]-4-methyl-7,8-dihydro-6H-pyrido[4,3-d]pyrimidin-5-one]
< 10 | COc1cncc(-c2cc(F)ccc2[C@H]2Cc3nc(N)nc(C)c3C(=O)N2Cc2cccc(Cl)c2)n1 [Compound 115, (R)-2-Amino-6-(3-chloro-benzyl)-7-[4-fluoro-2-(6-methoxy-pyrazin-2-yl)-phenyl]-4-methyl-7,8-dihydro-6H-pyrido[4,3-d]pyrimidin-5-one]
< 10 | COc1cccc(-c2cc(F)ccc2[C@H]2Cc3nc(N)nc(C)c3C(=O)N2Cc2cccc(Cl)c2)n1 [Compound 116, (R)-2-Amino-6-(3-chloro-benzyl)-7-[4-fluoro-2-(6-methoxy-pyridin-2-yl)-phenyl]-5-methyl-7,8-dihydro-6H-pyrido[4,3-d]pyrimidin-5-one]
< 10 | COc1cccc(-c2cc(F)ccc2[C@H]2Cc3nc(N)nc(C)c3C(=O)N2Cc2ccncc2)n1 [Compound 120, (R)-2-Amino-7-[4-fluoro-2-(6-methoxy-pyridin-2-yl)-phenyl]-4-methyl-6-pyridin-4-ylmethyl-7,8-dihydro-6H-pyrido[4,3-d]pyrimidin-5-one]
< 10 | COc1cccc(-c2cc(F)ccc2[C@H]2Cc3nc(N)nc(C)c3C(=O)N2Cc2ccccc2F)n1 [Compound 123, (R)-2-Amino-6-(2-fluoro-benzyl)-7-[4-fluoro-2-(6-methoxy-pyridin-2-yl)-phenyl]-4-methyl-7,8-dihydro-6H-pyrido[4,3-d]pyrimidin-5-one]
< 10 | COc1nc(-c2cc(F)ccc2[C@H]2Cc3nc(N)nc(C)c3C(=O)N2Cc2ccccc2F)cnc1N [Compound 124, (R)-2-Amino-7-[2-(5-amino-6-methoxy-pyrazin-2-yl)-4-fluoro-phenyl]-6-(2-fluoro-benzyl)-4-methyl-7,8-dihydro-6H-pyrido[4,3-d]pyrimidin-5-one]
< 10 | COc1cccc(-c2cc(F)ccc2[C@H]2Cc3nc(N)nc(C)c3C(=O)N2Cc2ccccc2Cl)n1 [Compound 125, (R)-2-Amino-6-(2-chloro-benzyl)-7-[4-fluoro-2-(6-methoxy-pyridin-2-yl)-phenyl]-4-methyl-7,8-dihydro-6H-pyrido[4,3-d]pyrimidin-5-one]
< 10 | COc1cccc(-c2cc(F)ccc2[C@H]2Cc3nc(N)nc(C)c3C(=O)N2Cc2cccc(C(F)(F)F)c2)n1 [Compound 128, (R)-2-Amino-7-[4-fluoro-2-(6-methoxy-pyridin-2-yl)-pheny 1]-4-methyl-6-(3-trifluoromethyl-benzyl)-7,8-dihydro-6H-pyrido[4,3-d]pyrimidin-5-one]
< 10 | COc1cncc(-c2cc(F)ccc2[C@H]2Cc3nc(N)nc(C)c3C(=O)N2Cc2ccccc2F)n1 [Compound 129, (R)-2-Amino-6-(2-fluoro-benzyl)-7-[4-fluoro-2-(6-methoxy-pyrazin-2-yl)-phenyl]-4-methyl-7,8-dihydro-6H-pyrido[4,3-d]pyrimidin-5-one]
< 10 | COc1cncc(-c2cc(F)ccc2[C@H]2Cc3nc(N)nc(C)c3C(=O)N2Cc2ccccc2Cl)n1 [Compound 130, (R)-2-Amino-6-(2-chloro-benzyl)-7-[4-fluoro-2-(6-methoxy-pyrazin-2-yl)-phenyl]-4-methyl-7,8-dihydro-6H-pyrido[4,3-d]pyrimidin-5-one]
< 10 | COc1cccc(-c2cc(F)ccc2[C@H]2Cc3nc(N)nc(C)c3C(=O)N2Cc2ccccc2)n1 [Compound 134, (R)-2-Amino-6-benzyl-7-[4-fluoro-2-(6-methoxy-pyridin-2-yl)-phenyl]-4-methyl-7,8-dihydro-6H-pyrido[4,3-d]pyrimidin-5-one]
< 10 | COc1ncccc1-c1cc(F)ccc1[C@H]1Cc2nc(N)nc(C)c2C(=O)N1Cc1ccccc1 [Compound 135, (R)-2-Amino-6-benzyl-7-[4-fluoro-2-(2-methoxy-pyridin-3-yl)-phenyl]-4-methyl-7,8-dihydro-6H-pyrido[4,3-d]pyrimidin-5-one]
< 10 | COc1cncc(-c2cc(F)ccc2[C@H]2Cc3nc(N)nc(C)c3C(=O)N2Cc2ccccc2)n1 [Compound 136, (R)-2-Amino-6-benzyl-7-[4-fluoro-2-(6-methoxy-pyrazin-2-yl)-phenyl]-4-methyl-7,8-dihydro-6H-pyrido[4,3-d]pyrimidin-5-one]
< 10 | Cc1nc(N)nc2c1C(=O)N(Cc1ccccc1)[C@@H](c1ccc(F)cc1-c1cccc(F)c1F)C2 [Compound 138, (R)-2-Amino-6-benzyl-4-methyl-7-(5,2′,3′-trifluoro-biphenyl-2-yl)-7,8-dihydro-6H-pyrido[4,3-d]pyrimidin-5-one]
> 10 | COc1ccc(-c2cc(F)ccc2[C@H]2Cc3nc(N)nc(C)c3C(=O)N2Cc2ccccc2)cc1F [Compound 139, (R)-2-Amino-6-benzyl-7-(5,3′-difluoro-4′-methoxy-biphenyl-2-yl)-4-methyl-7,8-dihydro-6H-pyrido[4,3-d]pyrimidin-5-one]

More lines, now with the values behind:

Compound | IC50 [µM]
CCN1C(=O)c2c(C)nc(N)nc2C[C@@H]1c1ccc(F)cc1-c1cccnc1 [Compound 110, (R)-2-Amino-6-ethyl-7-(4-fluoro-2-pyridin-3-yl-phenyl)-4-methyl-7,8-dihydro-6H-pyrido[4,3-d]pyrimidin-5-one] | < 10
CCN1C(=O)c2c(C)nc(N)nc2C[C@@H]1c1ccc(F)cc1-c1cnc(OC)nc1OC [Compound 111, (R)-2-Amino-7-[2-(2,4-dimethoxy-pyrimidin-5-yl)-4-fluoro-phenyl]-6-ethyl-4-methyl-7,8-dihydro-6H-pyrido[4,3-d]pyrimidin-5-one] | > 10
COc1cncc(-c2cc(F)ccc2[C@H]2Cc3nc(N)nc(C)c3C(=O)N2CCO)n1 [Compound 113, (R)-2-Amino-7-[4-fluoro-2-(6-methoxy-pyrazin-2-yl)-phenyl]-6-(2-hydroxy-ethyl)-4-methyl-7,8-dihydro-6H-pyrido[4,3-d]pyrimidin-5-one] | < 10
COc1ccc(CN2C(=O)c3c(C)nc(N)nc3C[C@@H]2c2ccc(F)cc2Br)c(OC)c1 [Compound 114, (R)-2-Amino-7-(2-bromo-4-fluoro-phenyl)-6-(2,4-dimethoxy-benzyl)-4-methyl-7,8-dihydro-6H-pyrido[4,3-d]pyrimidin-5-one] | > 10
COc1ncc(-c2cc(F)ccc2[C@H]2Cc3nc(N)nc(C)c3C(=O)N2Cc2cccc(Cl)c2)nc1OC [Compound 117, (R)-2-Amino-6-(3-chloro-benzyl)-7-[2-(5,6-dimethoxy-pyrazin-2-yl)-4-fluoro-phenyl]-4-methyl-7,8-dihydro-6H-pyrido[4,3-d]pyrimidin-5-one] | < 10
COc1ccc(CN2C(=O)c3c(C)nc(N)nc3C[C@@H]2c2ccc(F)cc2-c2cncc(OC)n2)c(OC)c1 [Compound 118, (R)-2-Amino-6-(2,4-dimethoxy-benzyl)-7-[4-fluoro-2-(6-methoxy-pyrazin-2-yl)-phenyl]-4-methyl-7,8-dihydro-6H-pyrido[4,3-d]pyrimidin-5-one] | < 10
COc1ccc(CN2C(=O)c3c(C)nc(N)nc3C[C@@H]2c2ccc(F)cc2-c2cccc(OC)n2)c(OC)c1 [Compound 119, (R)-2-Amino-6-(2,4-dimethoxy-benzyl)-7-[4-fluoro-2-(6-methoxy-pyridin-2-yl)-phenyl]-4-methyl-7,8-dihydro-6H-pyrido[4,3-d]pyrimidin-5-one] | < 10
COc1cncc(-c2cc(F)ccc2[C@H]2Cc3nc(N)nc(C)c3C(=O)N2Cc2ccncc2)n1 [Compound 121, (R)-2-Amino-7-[4-fluoro-2-(6-methoxy-pyrazin-2-yl)-phenyl]-4-methyl-6-pyridin-4-ylmethyl-7,8-dihydro-6H-pyrido[4,3-d]pyrimidin-5-one] | < 10
COc1nc(-c2cc(F)ccc2[C@H]2Cc3nc(N)nc(C)c3C(=O)N2Cc2ccncc2)cnc1N [Compound 122, (R)-2-Amino-7-[2-(5-amino-6-methoxy-pyrazin-2-yl)-4-fluoro-phenyl]-4-methyl-6-pyridin-4-ylmethyl-7,8-dihydro-6H-pyrido[4,3-d]pyrimidin-5-one] | < 10
COc1nc(-c2cc(F)ccc2[C@H]2Cc3nc(N)nc(C)c3C(=O)N2Cc2ccccc2Cl)cnc1N [Compound 126, (R)-2-Amino-7-[2-(5-amino-6-methoxy-pyrazin-2-yl)-4-fluoro-phenyl]-6-(2-chloro-benzyl)-4-methyl-7,8-dihydro-6H-pyrido[4,3-d]pyrimidin-5-one] | < 10
COc1cncc(-c2cc(F)ccc2[C@H]2Cc3nc(N)nc(C)c3C(=O)N2Cc2cccc(C(F)(F)F)c2)n1 [Compound 127, (R)-2-Amino-7-[4-fluoro-2-(6-methoxy-pyrazin-2-yl)-phenyl]-4-methyl-6-(3-trifluoromethyl-benzyl)-7,8-dihydro-6H-pyrido[4,3-d]pyrimidin-5-one] | < 10
COc1cncc(-c2cc(F)ccc2[C@H]2Cc3nc(N)nc(C)c3C(=O)N2CC2CCOCC2)n1 [Compound 131, (R)-2-Amino-7-[4-fluoro-2-(6-methoxy-pyrazin-2-yl)-phenyl]-4-methyl-6-(tetrahydro-pyran-4-ylmethyl)-7,8-dihydro-6H-pyrido[4,3-d]pyrimidin-5-one] | < 10
COc1cccc(-c2cc(F)ccc2[C@H]2Cc3nc(N)nc(C)c3C(=O)N2CC2CCOCC2)n1 [Compound 132, (R)-2-Amino-7-[4-fluoro-2-(6-methoxy-pyridin-2-yl)-phenyl]-4-methyl-6-(tetrahydro-pyran-4-ylmethyl)-7,8-dihydro-6H-pyrido[4,3-d]pyrimidin-5-one] | < 10
COc1cncc(-c2cc(F)ccc2[C@H]2Cc3nc(N)nc(C)c3C(=O)N2CC(C)(C)N2CCOCC2)n1 [Compound 133, (R)-2-Amino-7-[4-fluoro-2-(6-methoxy-pyrazin-2-yl)-phenyl]-4-methyl-6-(2-methyl-2-morpholin-4-yl-propyl)-7,8-dihydro-6H-pyrido[4,3-d]pyrimidin-5-one] | < 10
